Measurements from ChEMBL document CHEMBL4673401 (ACS Med Chem Lett, 2021).

Experiments:
[1] = target: T1, Indoleamine 2,3-dioxygenase 1 (Homo sapiens, UniProt P14902); assay: Inhibition of IDO1 in IFNgamma-stimulated human HeLa cells using L-tryptophan as substrate measured after 48 hrs
[2] = target: T1, Indoleamine 2,3-dioxygenase 1; assay: Inhibition of human IDO1 expressed in Escherichia coli Rosetta using tryptophan as substrate incubated for 1 hr by methylene blue based assay
[3] = target: Tryptophan 2,3-dioxygenase (Homo sapiens, UniProt P48775); assay: Inhibition of human TDO expressed in Escherichia coli Rosetta using tryptophan as substrate incubated for 1 hr by methylene blue based assay
Tryptophan 2,3-dioxygenase, sequence (P48775 whole entry): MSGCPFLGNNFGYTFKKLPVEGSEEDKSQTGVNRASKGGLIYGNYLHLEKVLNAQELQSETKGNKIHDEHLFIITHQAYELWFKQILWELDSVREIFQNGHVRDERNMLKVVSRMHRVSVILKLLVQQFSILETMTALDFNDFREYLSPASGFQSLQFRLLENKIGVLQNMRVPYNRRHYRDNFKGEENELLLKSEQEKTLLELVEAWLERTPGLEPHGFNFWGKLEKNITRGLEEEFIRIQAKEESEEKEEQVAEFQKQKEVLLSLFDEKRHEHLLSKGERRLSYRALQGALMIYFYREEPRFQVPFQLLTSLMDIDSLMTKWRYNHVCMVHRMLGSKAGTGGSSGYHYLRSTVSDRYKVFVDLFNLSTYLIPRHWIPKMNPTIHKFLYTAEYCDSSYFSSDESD

MC-38 = assay: Antitumor activity against mouse MC38 cells xenografted in humanized PD-1 mouse assessed as tumor growth inhibition at 100 mg/kg, po bid for 14 days in combination with PD-1 antibody at 3 mg/kg, ip qod for 8 days by digital caliper method relative to control; type: functional; settings: MC-38, 336 h, time 14 day, read-out: TGI
[4] = Half life in human liver microsomes; type: ADME, Microsome
[5] = Half life in rat liver microsomes; type: ADME, Microsome
[6] = Protein binding in human plasma by rapid equilibrium dialysis method; type: ADME, cell-free; settings: read-out: PPB (converted)
[7] = Protein binding in dog plasma by rapid equilibrium dialysis method; type: ADME, cell-free, Canis lupus familiaris; settings: read-out: PPB (converted)
[8] = Protein binding in rat plasma by rapid equilibrium dialysis method; type: ADME, cell-free; settings: read-out: PPB (converted)
[9] = target: Voltage-gated inwardly rectifying potassium channel KCNH2 (Homo sapiens, UniProt Q12809); assay: Inhibition of human ERG expressed in CHO-K1 cells at -90 mV holding potential by automated patch-clamp method; type: cell-based
Voltage-gated inwardly rectifying potassium channel KCNH2, sequence (Q12809 whole entry): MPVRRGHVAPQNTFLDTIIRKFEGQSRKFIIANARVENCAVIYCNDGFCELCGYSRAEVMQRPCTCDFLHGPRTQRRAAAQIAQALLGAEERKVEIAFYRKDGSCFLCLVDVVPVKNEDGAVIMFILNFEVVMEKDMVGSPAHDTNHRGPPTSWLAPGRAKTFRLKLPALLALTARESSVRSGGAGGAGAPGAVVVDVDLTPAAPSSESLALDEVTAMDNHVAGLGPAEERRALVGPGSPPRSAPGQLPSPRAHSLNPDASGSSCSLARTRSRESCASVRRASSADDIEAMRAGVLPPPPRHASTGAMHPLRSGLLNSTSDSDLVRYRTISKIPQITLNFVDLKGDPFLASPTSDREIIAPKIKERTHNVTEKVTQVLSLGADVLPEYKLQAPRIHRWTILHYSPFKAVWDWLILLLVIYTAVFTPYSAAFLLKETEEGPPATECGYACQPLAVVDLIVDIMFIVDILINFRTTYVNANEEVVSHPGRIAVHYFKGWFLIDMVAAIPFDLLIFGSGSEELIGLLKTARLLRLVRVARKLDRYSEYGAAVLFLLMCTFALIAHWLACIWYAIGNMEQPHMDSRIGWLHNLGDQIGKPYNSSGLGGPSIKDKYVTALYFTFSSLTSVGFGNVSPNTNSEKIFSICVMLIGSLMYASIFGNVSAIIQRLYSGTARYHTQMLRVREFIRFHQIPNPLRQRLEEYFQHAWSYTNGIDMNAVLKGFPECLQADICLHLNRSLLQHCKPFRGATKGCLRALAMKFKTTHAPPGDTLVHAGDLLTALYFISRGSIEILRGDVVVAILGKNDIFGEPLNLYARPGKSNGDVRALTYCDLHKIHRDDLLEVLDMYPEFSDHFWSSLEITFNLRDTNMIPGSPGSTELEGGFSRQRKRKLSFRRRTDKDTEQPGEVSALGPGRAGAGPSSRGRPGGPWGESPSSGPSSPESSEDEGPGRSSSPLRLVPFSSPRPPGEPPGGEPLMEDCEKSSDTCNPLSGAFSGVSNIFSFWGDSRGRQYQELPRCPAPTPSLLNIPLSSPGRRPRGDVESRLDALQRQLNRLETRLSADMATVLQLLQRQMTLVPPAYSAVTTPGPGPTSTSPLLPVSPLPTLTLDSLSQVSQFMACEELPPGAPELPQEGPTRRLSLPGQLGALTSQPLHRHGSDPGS

Cytochrome P450 3A4 = Cytochrome P450 3A4 (Homo sapiens, UniProt P08684); assay: Inhibition of CYP3A4 in human liver microsomes using midazolam as substrate incubated for 10 mins in presence of NADPH by UHPLC-MS/MS analysis; type: ADME
Cytochrome P450 3A4, sequence (P08684 whole entry): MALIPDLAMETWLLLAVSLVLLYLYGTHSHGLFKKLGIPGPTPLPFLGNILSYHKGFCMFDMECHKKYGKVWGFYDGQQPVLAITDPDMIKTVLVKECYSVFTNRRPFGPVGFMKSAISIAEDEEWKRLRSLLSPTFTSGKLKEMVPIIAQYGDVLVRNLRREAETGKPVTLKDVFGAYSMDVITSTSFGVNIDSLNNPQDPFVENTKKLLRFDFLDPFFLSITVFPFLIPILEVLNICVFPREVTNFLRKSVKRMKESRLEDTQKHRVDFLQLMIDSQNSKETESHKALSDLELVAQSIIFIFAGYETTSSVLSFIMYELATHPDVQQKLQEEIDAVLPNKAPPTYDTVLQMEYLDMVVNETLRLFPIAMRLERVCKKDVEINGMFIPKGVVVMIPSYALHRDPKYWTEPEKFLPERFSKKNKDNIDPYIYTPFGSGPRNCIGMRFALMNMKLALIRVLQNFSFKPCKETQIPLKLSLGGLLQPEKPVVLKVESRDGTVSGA

Cytochrome P450 2D6 = Cytochrome P450 2D6 (Homo sapiens, UniProt P10635); assay: Inhibition of CYP2D6 in human liver microsomes using dextromethorphan as substrate incubated for 10 mins in presence of NADPH by UHPLC-MS/MS analysis; type: ADME
Cytochrome P450 2D6, sequence (P10635 whole entry): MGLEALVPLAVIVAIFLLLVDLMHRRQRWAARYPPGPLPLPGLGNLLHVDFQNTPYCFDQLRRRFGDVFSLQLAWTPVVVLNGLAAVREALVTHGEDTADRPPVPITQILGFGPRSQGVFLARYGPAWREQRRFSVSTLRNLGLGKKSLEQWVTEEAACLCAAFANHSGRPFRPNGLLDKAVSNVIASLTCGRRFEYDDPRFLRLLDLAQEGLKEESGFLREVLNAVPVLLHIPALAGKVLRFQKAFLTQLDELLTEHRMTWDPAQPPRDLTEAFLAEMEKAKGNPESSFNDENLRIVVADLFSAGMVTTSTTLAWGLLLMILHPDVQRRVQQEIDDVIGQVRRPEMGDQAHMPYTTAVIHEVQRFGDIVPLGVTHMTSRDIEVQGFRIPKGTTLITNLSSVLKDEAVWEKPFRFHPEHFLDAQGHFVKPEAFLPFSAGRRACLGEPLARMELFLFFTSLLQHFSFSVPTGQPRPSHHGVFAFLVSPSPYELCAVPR

Cytochrome P450 2C19 = Cytochrome P450 2C19 (Homo sapiens, UniProt P33261); assay: Inhibition of CYP2C19 in human liver microsomes using S-mephenytoin as substrate incubated for 10 mins in presence of NADPH by UHPLC-MS/MS analysis; type: ADME; settings: read-out: INH
Cytochrome P450 2C19, sequence (P33261 whole entry): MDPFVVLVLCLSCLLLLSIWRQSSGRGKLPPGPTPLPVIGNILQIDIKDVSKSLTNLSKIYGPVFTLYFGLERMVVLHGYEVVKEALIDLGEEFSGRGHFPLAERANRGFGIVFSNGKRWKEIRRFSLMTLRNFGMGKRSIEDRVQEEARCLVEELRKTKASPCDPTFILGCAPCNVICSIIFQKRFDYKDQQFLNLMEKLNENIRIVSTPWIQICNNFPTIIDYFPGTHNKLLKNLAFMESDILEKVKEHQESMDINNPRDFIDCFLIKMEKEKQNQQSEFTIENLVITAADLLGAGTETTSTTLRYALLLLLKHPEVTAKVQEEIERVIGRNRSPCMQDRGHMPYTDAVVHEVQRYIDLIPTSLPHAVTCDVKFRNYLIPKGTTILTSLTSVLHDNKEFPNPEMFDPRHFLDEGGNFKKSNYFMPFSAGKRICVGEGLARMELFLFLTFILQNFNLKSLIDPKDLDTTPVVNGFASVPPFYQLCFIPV

Cytochrome P450 2C9 = Cytochrome P450 2C9 (Homo sapiens, UniProt P11712); assay: Inhibition of CYP2C9 in human liver microsomes using tolbutamide as substrate incubated for 10 mins in presence of NADPH by UHPLC-MS/MS analysis; type: ADME
Cytochrome P450 2C9, sequence (P11712 whole entry): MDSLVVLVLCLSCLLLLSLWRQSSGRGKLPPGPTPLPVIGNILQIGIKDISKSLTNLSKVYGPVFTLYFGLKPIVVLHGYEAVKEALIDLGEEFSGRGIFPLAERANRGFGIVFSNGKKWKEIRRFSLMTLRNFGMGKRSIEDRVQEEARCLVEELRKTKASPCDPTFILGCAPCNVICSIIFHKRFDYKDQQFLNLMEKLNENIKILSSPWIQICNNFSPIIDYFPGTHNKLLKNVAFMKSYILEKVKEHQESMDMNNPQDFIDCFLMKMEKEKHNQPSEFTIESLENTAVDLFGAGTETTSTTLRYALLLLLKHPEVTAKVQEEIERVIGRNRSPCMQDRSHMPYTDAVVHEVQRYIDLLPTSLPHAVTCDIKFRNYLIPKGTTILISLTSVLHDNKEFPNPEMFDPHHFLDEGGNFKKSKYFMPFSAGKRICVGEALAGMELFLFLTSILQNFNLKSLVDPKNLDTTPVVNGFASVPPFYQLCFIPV

Cytochrome P450 1A2 = target: T2, Cytochrome P450 1A2 (Homo sapiens, UniProt P05177); assay: Inhibition of CYP1A2 in human liver microsomes using phenacetin as substrate incubated for 10 mins in presence of NADPH by UHPLC-MS/MS analysis; type: ADME
T2 sequence (P05177 whole entry): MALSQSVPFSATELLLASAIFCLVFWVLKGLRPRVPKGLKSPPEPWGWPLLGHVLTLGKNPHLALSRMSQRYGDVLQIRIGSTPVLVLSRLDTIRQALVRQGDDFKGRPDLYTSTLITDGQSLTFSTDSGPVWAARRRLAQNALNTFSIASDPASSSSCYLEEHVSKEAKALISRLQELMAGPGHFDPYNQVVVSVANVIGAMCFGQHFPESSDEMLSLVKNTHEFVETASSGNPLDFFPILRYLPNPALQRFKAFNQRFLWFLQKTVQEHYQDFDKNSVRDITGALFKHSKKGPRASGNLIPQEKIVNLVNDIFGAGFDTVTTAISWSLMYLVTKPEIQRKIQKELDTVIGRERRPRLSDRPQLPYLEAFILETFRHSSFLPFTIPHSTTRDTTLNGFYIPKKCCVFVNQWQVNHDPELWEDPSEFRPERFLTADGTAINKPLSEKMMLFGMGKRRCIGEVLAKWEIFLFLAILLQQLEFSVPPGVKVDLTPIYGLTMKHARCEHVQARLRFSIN

[10] = Oral bioavailability in C57BL/6 mouse at 3 mg/kg measured up to 24 hrs; type: ADME, organism-based; settings: in vivo
[11] = Clearance in C57BL/6 mouse at 3 mg/kg, po measured up to 24 hrs; type: ADME, organism-based; settings: in vivo
[12] = Half life in C57BL/6 mouse at 3 mg/kg, po measured up to 24 hrs; type: ADME, organism-based; settings: in vivo
[13] = AUC in C57BL/6 mouse at 3 mg/kg, po measured up to 24 hrs; type: ADME, organism-based; parameters: route oral, dose 3 mg/kg, time <=24; settings: in vivo
[14] = Cmax in C57BL/6 mouse at 3 mg/kg, po measured up to 24 hrs; type: ADME, organism-based; parameters: route oral, dose 3 mg/kg, time <=24; settings: in vivo
[15] = Oral bioavailability in Beagle dog at 2 mg/kg measured up to 24 hrs; type: ADME, organism-based, Canis lupus familiaris; settings: in vivo
[16] = Clearance in Beagle dog at 2 mg/kg, po measured up to 24 hrs; type: ADME, organism-based, Canis lupus familiaris; settings: in vivo
[17] = Half life in Beagle dog at 2 mg/kg, po measured up to 24 hrs; type: ADME, organism-based, Canis lupus familiaris; settings: in vivo
[18] = AUC in Beagle dog at 2 mg/kg, po measured up to 24 hrs; type: ADME, organism-based, Canis lupus familiaris; parameters: route oral, dose 2 mg/kg, time <=24; settings: in vivo
[19] = Cmax in Beagle dog at 2 mg/kg, po measured up to 24 hrs; type: ADME, organism-based, Canis lupus familiaris; parameters: route oral, dose 2 mg/kg, time <=24; settings: in vivo
[20] = Oral bioavailability in Sprague-Dawley rat at 3 mg/kg measured up to 24 hrs; type: ADME, organism-based; settings: in vivo
[21] = Clearance in Sprague-Dawley rat at 3 mg/kg, po measured up to 24 hrs; type: ADME, organism-based; settings: in vivo
[22] = Half life in Sprague-Dawley rat at 3 mg/kg, po measured up to 24 hrs; type: ADME, organism-based; settings: in vivo
[23] = AUC in Sprague-Dawley rat at 3 mg/kg, po measured up to 24 hrs; type: ADME, organism-based; parameters: route oral, dose 3 mg/kg, time <=24; settings: in vivo
[24] = Cmax in Sprague-Dawley rat at 3 mg/kg, po measured up to 24 hrs; type: ADME, organism-based; parameters: route oral, dose 3 mg/kg, time <=24; settings: in vivo
[25] = Toxicity in humanized PD-1 mouse xenografted with mouse MC38 cells assessed as effect on body weight at 100 mg/kg, po bid for 14 days in combination with PD-1 antibody at 3 mg/kg, ip qod for 8 days; type: organism-based; settings: in vivo, 336 h, time 14 day

T1 sequence (P14902 whole entry): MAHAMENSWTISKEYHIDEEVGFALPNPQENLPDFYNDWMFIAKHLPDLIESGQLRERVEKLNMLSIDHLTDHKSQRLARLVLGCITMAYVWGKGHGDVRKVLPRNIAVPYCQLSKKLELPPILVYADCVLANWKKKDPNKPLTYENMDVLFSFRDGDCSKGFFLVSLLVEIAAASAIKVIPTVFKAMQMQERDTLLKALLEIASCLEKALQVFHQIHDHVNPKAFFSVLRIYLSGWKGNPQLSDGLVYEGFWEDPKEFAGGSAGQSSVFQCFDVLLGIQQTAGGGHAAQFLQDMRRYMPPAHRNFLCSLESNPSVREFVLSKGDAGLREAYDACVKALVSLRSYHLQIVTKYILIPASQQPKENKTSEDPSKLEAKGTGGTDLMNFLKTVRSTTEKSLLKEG

Question: With `O=C(/C(=N/O)Nc1ccc(F)c(Br)c1)c1cccs1` as the compound, how does the IC50 [1] read?
Answer: The IC50 was 272 nM.

Question: And the IC50 [2]?
Answer: Its IC50 is 117 nM.

Question: What about the IC50 [3] of the same compound?
Answer: Its IC50 is 63100 nM.

Question: Which IC50 [1] does the source give for `O=C(/C(=N/O)Nc1ccc(F)c(Br)c1)C1CCCCC1` here?
Answer: Its IC50 is 63 nM.

Question: What about the IC50 [2] of the same compound?
Answer: Its IC50 is 132 nM.

Question: And the IC50 [3]?
Answer: The IC50 was 79300 nM.

Question: Which IC50 [1] does the source give for `O=C(/C(=N/O)Nc1ccc(F)c(Br)c1)c1ccco1` here?
Answer: Its IC50 is 1680 nM.

Question: And the IC50 [2]?
Answer: The IC50 was 467 nM.

Question: What about the IC50 [3] of the same compound?
Answer: Its IC50 is over 100000 nM.

Question: With `O=C(/C(=N/O)Nc1ccc(F)c(Br)c1)c1ccccc1` as the compound, how does the IC50 [1] read?
Answer: The IC50 was 1430 nM.

Question: What about the IC50 [2] of the same compound?
Answer: The IC50 was 410 nM.

Question: And the IC50 [3]?
Answer: The IC50 was 80000 nM.

Question: With `NS(=O)(=O)NCCNc1nonc1C(=NO)Nc1ccc(F)c(Br)c1` [EPACADOSTAT] as the compound, how does the inhibition in vivo at 100 mg/kg (MC-38) read?
Answer: The inhibition in vivo at 100 mg/kg was 66.9%.

Question: And the half-life [4]?
Answer: The half-life was 4.88 h.

Question: And the half-life [5]?
Answer: Its half-life is 1.22 h.

Question: What about the fraction unbound [6] of the same compound?
Answer: The fraction unbound was 0.015.

Question: What about the fraction unbound [7] of the same compound?
Answer: The fraction unbound was 0.025.

Question: And the fraction unbound [8]?
Answer: Its fraction unbound is 0.03.

Question: What about the INH [9] of the same compound?
Answer: Its INH is over 30 µM.

Question: What about the INH (Cytochrome P450 3A4) of the same compound?
Answer: Its INH is over 10 µM.

Question: What about the INH (Cytochrome P450 2D6) of the same compound?
Answer: Its INH is over 10 µM.

Question: What about the IC50 (Cytochrome P450 2C19) of the same compound?
Answer: The IC50 was over 10000 nM.

Question: And the INH (Cytochrome P450 2C9)?
Answer: The INH was over 10 µM.

Question: What about the INH (Cytochrome P450 1A2) of the same compound?
Answer: Its INH is over 10 µM.

Question: And the bioavailability [10]?
Answer: Its bioavailability is 44%.

Question: And the clearance [11]?
Answer: Its clearance is 49.2 mL/min/kg.

Question: What about the half-life [12] of the same compound?
Answer: The half-life was 2.41 h.

Question: What about the AUC at 24 h [13] of the same compound?
Answer: Its AUC at 24 h is 1020 ng·h/mL.

Question: And the Cmax [14]?
Answer: Its Cmax is 253 ng/mL.

Question: What about the bioavailability [15] of the same compound?
Answer: The bioavailability was 50%.

Question: What about the clearance [16] of the same compound?
Answer: The clearance was 36.6 mL/min/kg.

Question: What about the half-life [17] of the same compound?
Answer: The half-life was 5.03 h.

Question: What about the AUC at 24 h [18] of the same compound?
Answer: The AUC at 24 h was 676 ng·h/mL.

Question: And the Cmax [19]?
Answer: The Cmax was 245 ng/mL.

Question: What about the bioavailability [20] of the same compound?
Answer: The bioavailability was 55%.

Question: What about the clearance [21] of the same compound?
Answer: The clearance was 29 mL/min/kg.

Question: And the half-life [22]?
Answer: The half-life was 2.73 h.

Question: What about the AUC at 24 h [23] of the same compound?
Answer: Its AUC at 24 h is 807 ng·h/mL.

Question: And the Cmax [24]?
Answer: Its Cmax is 133 ng/mL.

Question: What about the Activity [25] of the same compound?
Answer: Its Activity is “Non-Toxic”.

Question: And the IC50 [3]?
Answer: Its IC50 is over 100000 nM.

Question: Which half-life [17] does the source give for `Cn1cc(-c2ccc(NC(=O)N3CCC(C(=O)/C(=N/O)Nc4ccc(F)c(Br)c4)CC3)cc2)cn1` here?
Answer: The half-life was 1.1 h.

Question: And the AUC at 24 h [18]?
Answer: Its AUC at 24 h is 255 ng·h/mL.

Question: What about the Cmax [19] of the same compound?
Answer: Its Cmax is 140 ng/mL.

Question: What about the half-life [22] of the same compound?
Answer: Its half-life is 5.08 h.

Question: And the AUC at 24 h [23]?
Answer: Its AUC at 24 h is 1030 ng·h/mL.

Question: What about the Cmax [24] of the same compound?
Answer: Its Cmax is 173 ng/mL.

Question: And the IC50 [1]?
Answer: The IC50 was 15 nM.

Question: And the IC50 [2]?
Answer: Its IC50 is 14 nM.

Question: And the IC50 [3]?
Answer: The IC50 was over 100000 nM.

Question: Which IC50 [1] does the source give for `O=C(/C(=N/O)Nc1ccc(F)c(Br)c1)[C@H]1CC[C@H](NS(=O)(=O)Nc2ccccc2)CC1` here?
Answer: The IC50 was 291 nM.

Question: And the IC50 [2]?
Answer: The IC50 was 102 nM.

Question: And the IC50 [3]?
Answer: Its IC50 is over 100000 nM.

Question: For `O=C(/C(=N/O)Nc1ccc(F)c(Br)c1)C1CCN(S(=O)(=O)NCc2ccccc2)CC1`, which IC50 [1] is on record?
Answer: Its IC50 is 262 nM.

Question: And the IC50 [2]?
Answer: The IC50 was 24 nM.

Question: What about the IC50 [3] of the same compound?
Answer: The IC50 was over 100000 nM.

Question: What does the source list for `O=C(/C(=N/O)Nc1ccc(F)c(Br)c1)C1CCN(S(=O)(=O)Nc2ccccc2)CC1`?
Answer: IC50 [1]: 150 nM; IC50 [2]: 98 nM; IC50 [3]: 65700 nM

Question: With `O=C(/C(=N/O)Nc1ccc(F)c(Br)c1)c1cncs1` as the compound, how does the IC50 [1] read?
Answer: Its IC50 is 1770 nM.

Question: What about the IC50 [2] of the same compound?
Answer: The IC50 was 51 nM.

Question: What about the IC50 [3] of the same compound?
Answer: The IC50 was 11800 nM.
